Experimental data taken from PubChem BioAssay (NCI).
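Five compound concentrations were applied to cells in 96-well plates for 48 hours; endpoints were derived by simple linear interpolation of the resulting dose-response curve. TGI is the concentration that stops growth completely.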

Tests used:
Test in all cases: NCI tumour cell line growth inhibition, 48 h
COLO 205 colon = test system: COLO 205 colon
EKVX NSCLC = test system: EKVX NSCLC
HCT-15 colon = test system: HCT-15 colon
LOX IMVI melanoma = test system: LOX IMVI melanoma
MDA-MB-435 = test system: MDA-MB-435
NCI/ADR-RES ovarian = test system: NCI/ADR-RES ovarian
OVCAR-4 ovarian = test system: OVCAR-4 ovarian
RXF 393 renal = test system: RXF 393 renal
SF-539 CNS = test system: SF-539 CNS
SK-MEL-2 melanoma = test system: SK-MEL-2 melanoma
SK-MEL-5 melanoma = test system: SK-MEL-5 melanoma
SK-OV-3 ovarian = test system: SK-OV-3 ovarian
SR leukemia = test system: SR leukemia
TK-10 renal = test system: TK-10 renal

Structure (SMILES) | TGI (COLO 205 colon) [µM] | TGI (EKVX NSCLC) [µM] | TGI (HCT-15 colon) [µM] | TGI (LOX IMVI melanoma) [µM] | TGI (MDA-MB-435) [µM] | TGI (NCI/ADR-RES ovarian) [µM] | TGI (OVCAR-4 ovarian) [µM] | TGI (RXF 393 renal) [µM] | TGI (SF-539 CNS) [µM] | TGI (SK-MEL-2 melanoma) [µM] | TGI (SK-MEL-5 melanoma) [µM] | TGI (SK-OV-3 ovarian) [µM] | TGI (SR leukemia) [µM] | TGI (TK-10 renal) [µM]
CC(=O)Nc1nnc(S(=O)(=O)NC(=S)Nc2ccc(Cl)cc2)s1 | > 100 | > 100 | > 100 | > 100 | > 100 | > 100 | > 100 | > 100 | > 100 | > 100 | > 100 | > 100 | > 100 | > 100
CCOC(=O)c1ccc(Nc2cnc3ccc(C(F)(F)F)cc3n2)cc1 | 29.3 | 58.4 | 35.5 | 29.3 | 61.8 | 30.8 | 32 | 25.8 | 63.4 | 33.8 | 31.2 | > 100 | 52.6 | 26.9
COc1ccccc1N1C(=O)CC(=O)N(C(=O)CCCCCCCCC(=O)N2C(=O)CC(=O)N(c3ccccc3OC)C2=S)C1=S | > 100 | > 100 | > 100 | > 100 | > 100 | > 100 | > 100 | > 100 | > 100 | > 100 | > 100 | > 100 | > 100 | > 100
Nc1cc(N)c(N=Nc2cccc3c(S(=O)(=O)O)cccc23)cc1N=Nc1cc([N+](=O)[O-])ccc1O | > 100 | > 100 | 61 | 37.1 | > 100 | 93.2 | > 100 | > 100 | > 100 | > 100 | 47.2 | > 100 | 72.6 | > 100
O=[N+]([O-])c1ccc2[nH]c(O)c(N=NC(=S)Nc3ccccc3)c2c1 | > 100 | 9.2 | 17 | 24.6 | 26.9 | 8.62 | 29.2 | 26.4 | 27.6 | 31.3 | 13.5 | 28.2 | > 100 | 23.6
S=C(Nc1cccc(C2(N3CCCCC3)CCCCC2)c1)Nc1cccc(C2(N3CCCCC3)CCCCC2)c1 | 37.6 | > 100 | > 100 | 26.7 | 30.6 | > 100 | > 100 | 29.7 | 31.3 | 33.3 | 33.6 | > 100 | 31.6 | 7.39
C=CC[C@H]1[C@H](O[Si](C)(C)C(C)(C)C)C=CC(=O)[C@@H]1CC(=O)OCC | 28.6 | 24.2 | 26.6 | 32 | 26.4 | 24.4 | 25.2 | 25.7 | 30.8 | 28.1 | 22.9 | 34.1 | 41.7 | 28
Cc1cc(C(O)CNC(C)CCn2cnc3c2c(=O)n(C)c(=O)n3C)ccc1O (stereo not given) | > 100 | > 100 | > 100 | > 100 | > 100 | > 100 | > 100 | > 100 | > 100 | > 100 | > 100 | > 100 | > 100 | > 100
O=c1c(Sc2ncccn2)c(Sc2ncccn2)cnn1CCl | 4.79 | 8.65 | 11.8 | 5.28 | 3.87 | 24.4 | 6.14 | 3.46 | 4 | 5.88 | 21.2 | 23.2 | 12.4 | 11.4
O=C1C(NS(=O)(=O)c2ccccc2)=C(N(Cc2ccccc2)Cc2ccccc2)C(=O)c2ccccc21 | > 100 | > 100 | > 100 | > 100 | > 100 | > 100 | 59 | 67.8 | > 100 | 45.8 | > 100 | > 100 | > 100 | > 100
O=C(O)CCc1nc2cc3ccccc3cc2[nH]c1=O | > 100 | > 100 | > 100 | > 100 | > 100 | > 100 | > 100 | > 100 | > 100 | > 100 | > 100 | > 100 | > 100 | > 100
CC1(C)CC2(C)ON=C(c3ccccc3)N2c2ccccc2N1 (stereo not given) | 45.9 | 77 | > 100 | 33.8 | 39.8 | 74.6 | > 100 | 54.5 | 40.1 | 40.1 | 30.7 | 53 | > 100 | 91.8
CCOP(=O)(OCC)C(=C1C=C(C(C)(C)C)C(=O)C(C(C)(C)C)=C1)P(=O)(OCC)OCC | 4.2 | > 10 | > 6.87 | > 10 | > 10 | > 10 | 3.5 | > 10 | > 10 | > 10 | > 10 | > 10 | > 10 | > 7.39
Oc1ccc(Cn2c(-c3ccc(O)cc3)nc3ccccc32)cc1 | > 100 | > 100 | > 100 | > 100 | > 100 | > 100 | > 100 | > 100 | > 100 | > 100 | > 100 | > 100 | > 31.6 | > 100
Cc1ccc(-n2cc(-c3ccc(Cl)cc3)c(C#N)c2N)cc1 | 27.1 | 30.5 | 25 | 29.8 | 32.7 | 39.1 | 28.4 | 23.1 | 30.9 | 29.4 | 29.7 | 43.4 | > 100 | 28.2
CC1=C(C)C(=O)C(C2=C(C3=CC(=O)C(C)=C(C)C3=O)C(=O)c3ccccc3C2=O)=CC1=O | 3.93 | 5.81 | 5.53 | 5.94 | 3.05 | 36.7 | 4 | 3.38 | 10.5 | 5.71 | 12.6 | 30.5 | 14.1 | 15.9
CCCc1cc(-c2ccc(-c3cc(CCC)c(C=O)[nH]3)s2)[nH]c1C=O | > 100 | > 100 | > 100 | 32.1 | > 100 | > 100 | > 100 | > 87.9 | > 100 | > 59.7 | > 100 | > 100 | > 100 | > 100
CN1CCCC(C(=O)OCC(=O)C2(O)CCC3C4CCC5=CC(=O)CCC5(C)C4C(O)CC32C)C1 (stereo not given) | 32.9 | 67.1 | 44.1 | 30.6 | 33.4 | 55.3 | 32.5 | 23.1 | 4.38 | 39.3 | 41.3 | 45.6 | 4.47 | 42.2
COc1ccc(N2C(=O)C3c4[nH]c5ccc(OCc6ccccc6)cc5c4C4CCC(C(C)C)CC4C3C2=O)cc1 (stereo not given) | > 100 | > 100 | > 100 | > 100 | > 100 | > 100 | > 100 | 32.9 | 23.5 | 40.3 | > 100 | 43 | 22.9 | > 80.4
CC(=O)/C(=C(/Br)I)c1ccccc1 | 26.4 | 26.5 | 17.7 | 22.5 | 11.9 | 45 | 25 | 13.3 | 47.8 | 15.7 | 30.8 | > 64.5 | 13.5 | 36.3
